“Also recorded” adds a separate entry of the source. Read-outs that look alike come from different tables or passages of the source.

Assay [1] has as its system C. elegans wild type (N2, Bristol). Put plainly: Mobility tracking of C. elegans during aging. Format: in vivo. The conditions noted are these: days 1, 3, 5 and 8 of adulthood; 50 μM; FIG. 12. Here is the method: To examine the effect of urolithins on muscle activity during aging, C. elegans mobility was examined over time. Synchronized populations of wild-type nematodes were prepared by standard methods and cultivated at 20° C. on NGM agar containing E. Coli (OP50) with or without test compounds (ellagic acid (EA), urolithins A (UA), and B (UB)). At Day 0, five plates were prepared, each containing 10 young adult worms. Worms were assayed for mobility at different ages, day 1, 3, 5 and 8 of adulthood. The wild type (N2, Bristol) worm strain was employed for these studies.
For C. elegans movement tracking, 45 seconds of video were recorded using a Nikon DS-L2/DS-Fi1 camera and controller setup, attached to both a computer and a standard bright field microscope, tracking an entire plate of 10 worms, with 5 plates per condition. The movement of worms during this time was calculated using an adapted version of the freely-available software Parallel Worm Tracker for MATLAB. The total movement over the 45 second tracking was averaged across all worms for each condition. This experiment was repeated twice with between 40 and 70 worms per condition.

In assay [2] the test system is C. elegans wild-type Bristol N2. Put plainly: Lifespan of wild-type C. elegans. The conditions noted are these: concentration of 50 µM; exposed from eggs; FIG. 4. Format: in vivo. The method, then: C. elegans strains were cultured at 20° C. on nematode growth media (NGM) agar plates seeded with E. coli strain OP50. Strain used was wild-type Bristol N2 provided by the Caenorhabditis Genetics Center (University of Minnesota). All Compounds were dissolved in DMSO. Animals were exposed to compounds from eggs on plates seeded with live OP50 bacteria. Control plates were prepared with the corresponding concentrations of DMSO (0.1%). For lifespan tests, worms were observed using a Nikon SMZ1500 stereomicroscope (Nikon, Melville, NY, USA). […] After 3 days (corresponding to day 0), newly developed 60 to 100 L4 worms were used per condition, scored and transferred to fresh plates every 3 days starting from day 1 (young adult worms). All lifespan experiments were performed at 20° C.
Lifespan assays were performed with (A) wild-type (N2), (B) sir-2.1(ok434) mutant, (C) aak-2(ok524), (D) daf-16(mu86), (E) eat-2(ad465) and (F) daf-2(e1370) mutant strains of C. elegans maintained during their full life on plates supplemented with either 50 μM of urolithin A or with a control treatment and seeded with OP50 bacteria. Control plates without urolithin A contained an equivalent concentration of DMSO. Worm lifespan assays were performed at 20° C.

For assay [3] the test system is unchanged. The conditions noted are these: Genotype: N2, fed live E. coli (OP50), cited from earlier work.
The test system of assay [4] is undifferentiated C2C12 mouse myoblasts. Put plainly: LC3B flow cytometry in C2C12 myoblasts. Format: cell-based. The note with it: 100 μM, 24 hrs, FIG. 26. Here is the method:
To determine the ability of urolithin A to induce autophagy in mouse muscle cells, undifferentiated C2C12 mouse myoblasts were seeded in T25 flasks and incubated overnight. Cells were incubated in 5% CO2 at 37° C. These cells were treated with one of the urolithins-urolithin A (UA), urolithin B (UB), urolithin C (UC) or urolithin D (UD)—dissolved in a 0.1% solution of DMSO for 24 hours. In one experiment UA, UB, UC and UD were dosed at a concentration of 100 μM for C2C12 myoblast treatment. In a separate study, C2C12 myoblasts were incubated at increasing concentrations of UA (10 μM, 50 μM and 100 μM). For each experiment a control culture was treated with 0.1% DMSO for the same period and served as the untreated control. In the final 30 minutes of incubation, lysosome degradation inhibitor was added to the culture. The cells were then washed with phosphate buffer solution and then treated with a 1% solution of trypsin enzyme to remove the adhesive cells from the cell culture dishes. The cells were then treated with EMD Millipore selective permeabilization reagent to permeabilize the cells so as to make the internal cellular proteins accessible to antibody treatment. Cells were then incubated with antibody to LC3B according to kit protocol (EMD Millipore FlowCellect™ Autophagy LC3 Antibody-based Assay Kit (Cat no. FCCH100171)). The cells were then washed and resuspended in the kit assay buffer. The resulting cells were then run through a flow cytometer and LC3B-FITC fluorescence was quantified to measure the level of LC3B in C2C12 cells for the various treatments. When cells undergo autophagy their intracellular levels of LC3-II increase which is detected by this method. This autophagy can be detected by fluorescent antibody labeling of LC3B, which can be measured quantitatively using flow cytometry. An increase in cellular autophagy is reflected by an increasing signal in the histogram of LC3B FITC.

In assay [5] the test system is C. elegans. As to the kind of experiment: Pharyngeal pumping in C. elegans. Format: in vivo. The conditions noted are these: day 14 (aged worms); 50 μM; FIG. 11. Here is the method: To examine the effect of urolithins on muscle function, pharyngeal pumping was examined in C. elegans worms at day 7 and day 14. Worms were observed using a Nikon SMZ1500 stereomicroscope (Nikon, Melville, NY, USA). Ten L4 worms were transferred on plates containing NGM medium with vehicle (DMSO 0.1%, final concentration) or the compound of interest (urolithin A (UA), urolithin B (UB), urolithin C (UC), urolithin D (UD)) dissolved in DMSO (final concentration 50 μM) and seeded with E. coli RNAi clones as indicated. After 3 days (corresponding to day 0), newly developed 60 to 100 L4 worms were used per condition, scored and transferred to fresh plates every 3 days starting from day 1 (young adult worms). Experiments were performed at 20° C.
The pharyngeal pumping rates at day 7 and 14 were measured for 10 worms by transferring single worms to an unseeded plate and scoring for pharyngeal pumping under a dissecting microscope for 30 seconds. The pharyngeal pumping rates were then computed by extrapolating the pumping made by worms during this 30 second period.

Assay [6] has as its system C. elegans. Put plainly: Time-lapse motility of C. elegans. Format: in vivo. The note with it: 50 μM; days 8, 14 and 16; FIG. 13. An excerpt: Briefly, worms were observed using a Nikon SMZ1500 stereomicroscope (Nikon, Melville, NY, USA). […] Experiments were repeated three times.

Turning to `O=c1oc2c(O)c(O)cc3c(=O)oc4c(O)c(O)cc1c4c23` [Ellagic acid, ellagic acid], the “age related mobility decline” value in assay [1] is “no effect”. In addition, the “effect on lifespan in C. elegans” value in assay [2] was “no effects”.

In the case of `CN(C)C(=N)NC(=N)N` [Metformin, N,N-Dimethylimidodicarbonimidic diamide], the “Mean Life Extension (%)” value in assay [3] (dose 50 μM) is recorded as 27%.

Regarding `CO[C@H]1C[C@@H]2CC[C@@H](C)[C@@](O)(O2)C(=O)C(=O)N2CCCC[C@H]2C(=O)O[C@H]([C@H](C)C[C@@H]2CC[C@@H](O)[C@H](OC)C2)CC(=O)[C@H](C)/C=C(\C)[C@@H](O)[C@@H](OC)C(=O)[C@H](C)C[C@H](C)/C=C/C=C/C=C/1C` [Rapamycin, (3S,6R,7E,9R,10R,12R,14S,15E,17E,19E,21S,23S,26R,27R,34aS)-9,10,12,13,14,21,22,23,24,25,26,27,32,33,34,34a-hexadecahydro-9,27-dihydroxy-3-[(1R)-2-[(1S,3R,4R)-4-hydroxy-3-methoxycyclohexyl]-1-methylethyl]-10,21-dimethoxy-6,8,12,14,20,26-hexamethyl-23,27-epoxy-3H-pyrido[2,1-c][1, 4]-oxaazacyclohentriacontine-1,5,11,28,29(4H,6H,31H)-pentone], the “Mean Life Extension (%)” value in assay [3] (dose 100 μM) is 19%.

For the molecule `Oc1ccc(/C=C/c2cc(O)cc(O)c2)cc1` [Resveratrol, 3,5,4′-trihydroxy-trans-stilbene], the “Mean Life Extension (%)” value in assay [3] (dose 100 μM) is 6.2-12.6%; in assay [3] (dose 100 μM, listed as resveratrol), 12.6%.

In the case of `NCCCCNCCCN` [Spermidine, spermidine], the “Mean Life Extension (%)” value in assay [3] (dose 200 μM) is 15%.

For `O=c1oc2cc(O)ccc2c2ccccc12` [Urolithin B, urolithin B], the “age related mobility decline” value in assay [1] is listed as “marked ability to reduce muscle function decline”. The “effect on lifespan in C. elegans” value in assay [2] is given as “extended the lifespan”. For the same molecule, the “LC3B signal (shift of the histogram)” value in assay [4] (listed as UB) is given as “increasing signal of LC3B; also recorded: increase in autophagy”. Further, in the assay with C. elegans [5], the “pharyngeal pumping (muscle function)” value is recorded as “decreases the age related decline in muscle activity”. The “motility (time-lapse traces)” value with C. elegans [6] is listed as “strongest effect”.

For the molecule `O=c1oc2cc(O)ccc2c2cc(O)c(O)cc12` [Urolithin C, urolithin C], the “effect on lifespan in C. elegans” value in assay [2] is recorded as “extended the lifespan”. For the same molecule, the “LC3B signal (shift of the histogram)” value in assay [4] (listed as UC) is on record as “increasing signal of LC3B; also recorded: increase in autophagy”.

As for `O=c1oc2c(O)c(O)ccc2c2cc(O)c(O)cc12` [Urolithin D, urolithin D], the “effect on lifespan in C. elegans” value in assay [2] is listed as “extended the lifespan”. Moreover, the “LC3B signal (shift of the histogram)” value in assay [4] (listed as UD) was “increasing signal of LC3B; also recorded: increase in autophagy”.

The record behind these values is US11931335B2, “Enhancing autophagy or increasing longevity by administration of urolithins or precursors thereof” (Amazentis SA, priority 2012, dated 2024).
